{
  "source": "patent US20130150335A1",
  "about": "“PACLITAXEL/STEROIDAL COMPLEX” (Institute of Mataria Medica, Chinese Academy of Medical …, priority 2009, published 2013)",
  "key": {"[1]": {"assay": "Solubility of paclitaxel/lipid complex in oil (soybean oil, MCO, mixed oil)", "assay_type": "physicochemical", "conditions": "for solubility at 1 h: saturated solution", "protocol": "Take 4 g of paclitaxel, add cholesterol, 7-dehydrocholesterol and ergosterol respectively in accordance with the amount ratio as stated in Table 2 below, move to a rotary evaporator together, dissolve with 500 ml of acetone each, mix at 45° C. for 1 hour then remove the solvent by the rotary evaporation method, vacuum dry at 65° C. for 15 hours. Take a quantity of each complex formed, add 20 g of soybean oil for injection used, heat in water bath for 1 hour and shake, obtain saturated solutions.\nUsing acetone as the solvent, the molar ratio of paclitaxel to cholesterol being 1:1, the reaction temperature at 35° C., the reaction time being 0.5 h, the effect of the paclitaxel concentration (16.0, 8.0, 4.0, 2.0, 1.0 and 0.5 mg/ml) on the complex preparation was investigated.\nFilter the solution, take a quantity of the successive filtrate, dilute with absolute ethanol, carry out an HPLC analysis, calculate the solubility of complex in oil; take a quantity of paclitaxel, repeat the procedure."}, "[2]": {"assay": "Solubility of paclitaxel cholesterol complex in n-octanol", "assay_type": "physicochemical", "conditions": "organic solvent or mixture, thermodynamic from solid, 25° C., saturated solution, read-out: drug solubility in n-octanol", "protocol": "Take 5 ml of the solution, filter by 0.45 μm of membrane, take an amount of the successive filtrate, dilute with absolute ethanol, carry out the ultraviolet spectrophotometry method, calculate the apparent solubility of the physical mixture and cholesterol in n-octanol, compared the results with paclitaxel."}},
  "note": "Where two headings read alike, the source gives them in different places.",
  "data": [
    {"smiles": "CC(=O)O[C@H]1C(=O)[C@@]2(C)[C@H]([C@H](OC(=O)c3ccccc3)[C@]3(O)C[C@H](OC(=O)[C@H](O)[C@@H](NC(=O)c4ccccc4)c4ccccc4)C(C)=C1C3(C)C)[C@]1(OC(C)=O)CO[C@@H]1C[C@@H]2O", "note": "[Paclitaxel]", "values": [
      {"measurement": "drug solubility in vegetable oil: Mixed oil", "setting": "[1]; Table 4, soybean oil and MEDIUM CHAIN OIL (volume ratio of 1:1), 60° C.", "value": 1360, "unit": "µg/mL"},
      {"measurement": "solubility at 1 h", "setting": "[1]; medium chain oil (MCO), oil or lipid, thermodynamic from solid, Table 4, MEDIUM CHAIN OIL, 60° C., read-out: drug solubility in vegetable oil: MCO", "value": 2370, "unit": "µg/mL"},
      {"measurement": "solubility at 1 h", "setting": "[1]; oil or lipid, thermodynamic from solid, Table 4, soybean oil for injection, 60° C., read-out: drug solubility in vegetable oil: Soybean oil", "value": 270, "unit": "µg/mL"},
      {"measurement": "solubility at 1 h", "setting": "[1]; soybean oil for injection, oil or lipid, thermodynamic from solid, Table 2, effect of paclitaxel/steroid amount ratio, HPLC, read-out: Solubility in soybean oil", "value": 270, "unit": "µg/mL"},
      {"measurement": "solubility", "setting": "[1]; soybean oil, oil or lipid, thermodynamic from solid, Table 1, complexes per CN200810168213.X, calculated as paclitaxel", "value": 270, "unit": "µg/mL"},
      {"measurement": "solubility at 24 h", "setting": "[2]", "value": 8860, "unit": "µg/mL"}
    ]}
  ]
}
